The target in experiment [1] is T1, CB1R (presynaptic, mouse hippocampus) (Mus musculus, UniProt P47746).
T1 construct: gene Cnr1; native receptor in hippocampal brain slices
As to the kind of experiment: fEPSP field recording, inhibition of glutamate release in hippocampal slices. To be noted: agonist; native presynaptic receptor, downstream read-out; 31-32 °C; 50 µM caffeine; reversed by AM251.

Experiment [2] deals with T2, CB1R (CB1R-Rluc) (Homo sapiens, UniProt P21554).
T2 construct: gene CNR1; Rluc-fused receptor in HEK-293T cells; with mVenus-Gi1 plus Gbeta1/Ggamma2, or beta-arrestin 2-Venus plus GRK2
T2 sequence (P21554 whole entry, the tested form may be a part): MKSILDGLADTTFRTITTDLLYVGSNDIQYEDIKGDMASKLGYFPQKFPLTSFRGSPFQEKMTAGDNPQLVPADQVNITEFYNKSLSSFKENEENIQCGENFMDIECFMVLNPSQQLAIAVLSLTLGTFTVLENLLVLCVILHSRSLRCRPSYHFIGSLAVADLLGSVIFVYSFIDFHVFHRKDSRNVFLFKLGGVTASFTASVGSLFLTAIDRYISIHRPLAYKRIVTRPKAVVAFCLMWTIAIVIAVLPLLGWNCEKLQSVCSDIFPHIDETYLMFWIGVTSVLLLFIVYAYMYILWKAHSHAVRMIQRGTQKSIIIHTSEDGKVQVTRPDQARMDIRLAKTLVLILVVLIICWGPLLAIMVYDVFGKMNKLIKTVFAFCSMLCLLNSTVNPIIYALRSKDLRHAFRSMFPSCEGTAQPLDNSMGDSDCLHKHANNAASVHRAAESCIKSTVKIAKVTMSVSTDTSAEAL
Kind of experiment: BRET CB1R-Rluc/Gi1-Venus engagement. The class given is cell-based.

Experiment [3] has as its target T2, CB1R (CB1R-Rluc). Kind of experiment: BRET CB1R-Rluc/beta-arrestin 2-Venus recruitment. The class given is cell-based. The text has this: BRET CB1R-Rluc/beta-arrestin 2-Venus recruitment on CB1R (CB1R-Rluc)
Setting [4] is: read-out: 5F-MMB-PICA (converted).
Setting [5] is: read-out: 5F-SDB-006 (converted).

T1 sequence (P47746 whole entry): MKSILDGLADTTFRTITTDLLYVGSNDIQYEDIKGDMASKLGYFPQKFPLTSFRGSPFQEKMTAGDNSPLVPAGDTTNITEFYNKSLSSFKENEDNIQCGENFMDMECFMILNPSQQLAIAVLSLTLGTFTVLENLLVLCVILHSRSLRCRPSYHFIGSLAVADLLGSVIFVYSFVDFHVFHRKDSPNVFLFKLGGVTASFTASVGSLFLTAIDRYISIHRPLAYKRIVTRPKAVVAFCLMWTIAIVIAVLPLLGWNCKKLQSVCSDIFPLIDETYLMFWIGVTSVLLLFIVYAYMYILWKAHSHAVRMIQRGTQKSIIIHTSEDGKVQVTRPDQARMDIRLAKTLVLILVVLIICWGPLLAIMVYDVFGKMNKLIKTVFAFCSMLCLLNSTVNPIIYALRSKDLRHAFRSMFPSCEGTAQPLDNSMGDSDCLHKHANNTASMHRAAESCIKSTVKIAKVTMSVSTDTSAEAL

For `COC(=O)C(NC(=O)c1cn(CCCCCF)c2ccccc12)C(C)(C)C` (stereo not shown) [5F-MDMB-PICA], the pEC50 (usually the negative decadic logarithm of the EC50, by convention in mol/L) in experiment [1] is on record as 7.20.
`COC(=O)C(NC(=O)c1cn(CCCCCF)c2ccccc12)C(C)C` (stereo not shown) [5F-MMB-PICA]: the figures for the EC50 at CB1R (CB1R-Rluc) [2] (setting [4]) and on CB1R (CB1R-Rluc) [3] (setting [4]) were 2.95 µM and 3.63 µM, respectively. In experiment [1], the pEC50 was determined as 6.72.
As to `O=C(Nc1cccc2ccccc12)c1cn(CCCCCF)c2ccccc12` [5F-NNEI], the values for the EC50 at CB1R (CB1R-Rluc) [2] (read-out: 5F-NNEI (converted)) and at CB1R (CB1R-Rluc) [3] (read-out: 5F-NNEI) were 4.68 µM and 5.25 µM, respectively.
For `O=C(NCc1ccccc1)c1cn(CCCCCF)c2ccccc12` [5F-SDB-006], the EC50 on CB1R (CB1R-Rluc) [2] (setting [5]) was 1.48 µM; at CB1R (CB1R-Rluc) [3] (setting [5]), 2.45 µM.
In the case of `O=C(c1cccc2ccccc12)c1cn(CCCCCF)c2ccccc12` [AM2201], the EC50 on CB1R (CB1R-Rluc) [2] (read-out: AM2201 (converted)) was 0.339 µM; at CB1R (CB1R-Rluc) [3] (read-out: AM2201 (converted)) it was 0.759 µM.

These data come from PMC10623572, “Subtle Structural Modification of a Synthetic Cannabinoid Receptor Agonist Drastically Increases its Efficacy at the CB1 Receptor” (ACS Chemical Neuroscience, 2023).
